The numbers were not newly measured in US20110092601A1, “LYSINE-SPECIFIC DEMETHYLASE INHIBITORS” (THE JOHNS HOPKINS UNIVERSITY, priority 2007, published 2011), which cites them from elsewhere.

The data set deals with P19 embryonal carcinoma cells. Conditions: P19 embryonal carcinoma cells treated with tranylcypromine.

With `N[C@@H]1C[C@H]1c1ccccc1` [tranylcypromine, (1R,2S)-2-phenylcyclopropan-1-amine], the “Effect on transcription of the Egr1 and Oct4 genes” value is “transcriptional de-repression of the Egr1 and Oct4 genes”.
